{"source": "patent US6689764B1", "about": "“Treatment of angiogenesis dependent conditions with dextrin sulphate” (priority 1999, dated 2004)", "key": {"[1]": {"test_system": "HUVEC cell line", "assay": "TCS Biologicals Human Angiogenesis Model (tubule formation)", "assay_type": "cell-based", "protocol": "The effect of sulphated dextrin on vessel formation of the HUVEC cell line was performed by the use of the TCS Biologicals Human Angiogenesis Model. The assay is supplied as a growing culture of the HUVEC cell line together with culture matrix and additional human cells present (the exact nature of the cells is not known) at the earliest stages of tubule formation in a 24-well format. The positive control reagent was a standard stock solution of VEGF and the negative control was Suramin. After removing the well seals, the cultures were examined for cell morphology to confirm their viability.\nGrowth medium was provided with the kit and was used to make up the sulphated dextrin at concentrations ranging from 0-1000 μg/ml. The existing medium was aspirated from the wells and replaced with medium containing the dextrin sulphate concentrations in a 0.5ml volume. This was placed at 37° C., in a 5% CO2 containing atmosphere. This was repeated on days 4, 7 and 9.\nBetween days 7-11 cultures were fixed by the enclosed fixative and stained with the mouse monoclonal anti-PECAM-1 antibody at a 1:4000 dilution (present in blocking buffer). 0.5ml of diluted antibody was added per well and incubated for 60 minutes at 37° C. The secondary antibody (goat anti-mouse lgG alkaline phosphatase conjugate) was diluted 1:500 in blocking buffer and added to the wells after washing for 60 minutes at 37° C. After washing the plate the substrate was prepared; BCIP/NBT tablets were dissolved in distilled water and added to the wells. Following incubation for 5-10 minutes the wells were washed and were imaged using the Leica Qwin image analysis software package."}, "[2]": {"test_system": "human placental blood vessels", "assay": "Placental blood vessel in fibrin clot in vitro angiogenesis assay", "assay_type": "cell-based", "settings": "100 μg/ml; for new vessel formation compared to media alone: up to day 22", "protocol": "Compounds were tested at a final concentration of 100 μg/ml. The degree of new vessel formation was quantified blind twice a week using a visual analog scale in which 0=no growth, 1=minimal new vessel formation, 2=significant new vessel formation, and 3=dense new vessel formation. An angiogenesis score was derived from each count by dividing the total score (i.e. the sum of all the wells) by the maximum possible score and then expressing the result as a percentage. This graph is representative of 3 experiments with a total of 20 wells/plate/experiment for each compound tested.\nBlood vessels (approximately 1-2 mm diameter) were excised from the apical surface of human placentas within 6 h of an elective Caesarean birth. Use of the placentas for these studies were approved by the Ethics Committee of Hammersmith Hospitals Trust, London. The blood vessels were placed in Hank's balanced salt solution and cut into 1-2 mm fragments using fine dissecting forceps and iridectomy scissors. Residual clots were removed and the blood vessels then soaked in Hank's balanced salt solution.\nThe effect of each compound on new blood vessel formulation was determined by culturing the blood vessels within a fibrin clot in 24-well tissue culture plates. Thirty μl of bovine thrombin (50 NIH U/ml in 0.15 M sodium chloride) was added to each well followed by 1 ml/well of 3 mg/ml bovine fibrinogen in Medium 199. The thrombin and fibrinogen were rapidly mixed and a blood vessel fragment placed in the centre of the well. Fibrin gel formation occurred rapidly and left the vessel suspended within the gel. One ml/well of Medium 199 supplemented with 20% foetal calf serum, 250 IU/ml penicillin and 250 U/ml streptomycin was then added to each well. ε-arnino-n-caproic acid was also added (300 μg/ml) for the first 4 days and twice weekly thereafter (50 μg/ml) in order to prevent dissolution of the fibrin clot. The vessels were cultured at 37° C. in a humidified incubator for 25 days with the media being changed twice weekly.\nThe degree of new vessel formation was quantified blind twice a week by three different observers using a visual analogue scale in which 0=no growth, 1=very little new vessel formation, 2=significant new vessel formation and 3=dense new vessel formation. An angiogenesis score was derived from the counts undertaken for each well by dividing the total score by the maximum score possible and then expressing the result as a percentage. On each of 3 separate occasions, each compound was tested in 20 replicate wells. […] Some of the fibrin clots were fixed overnight in 10% formalin, paraffin embedded, sectioned for histology and then stained for the endothelial cell markers Factor VIII and CD31. Results are expressed as the mean±sem. A students t-test was used to determine the level of significance."}, "[3]": {"test_system": "HUVEC's", "experimental": "(§1) Human umbilical vein endothelial cells (HUVEC's) were also harvested from umbilical cords by digestion with collagenase type II and cultured in 1% gelatin coated tissue culture flasks in Medium 199 supplemented with 20% fetal bovine serum, 100 IU/ml penicillin, 0.1 mg/ml streptomycin, 2mM L-glutamine, 10 U/ml heparin and 20 μg/ml endothelial cell growth supplement. The KS Y-1 cell line which was established from the pleural effusion of a patient with AIDS-associated Kaposi's sarcoma was also studied. It was CD34 and CD31 positive confirming it as being of endothelial origin.\n(§2) The effect of sulphated dextrins on the growth of HUVEC's and KSY-1 cells which were being cultured in the presence of basic fibroblast growth factor (bFGF) or vascular endothelial growth factor (VEGF) was also determined."}, "[4]": {"test_system": "KSY-1 cells", "experimental": "as §1, §2"}, "[5]": {"test_system": "HUVECs", "assay": "Proliferation induced by bFGF or VEGF, [3H]-thymidine incorporation", "assay_type": "cell-based, human", "settings": "100 μg/ml, bFGF 10 ng/ml or VEGF 20 ng/ml", "protocol": "FIG. 3: Graph to show the effect of sulphated dextrins on the proliferation of HUVECs induced by bFGF or VEGF was measured using a [^3H]-thymidine incorporation assay.\nFor these experiments, HUVECs (5×10^3/well) were suspended in Medium M199 containing 10% FCS, 2 mM L-glutamine, 100 Iu/ml penicillin and 0.1 mg/ml streptomycin. After 24 h, the media was replaced with fresh media containing either D2S (100 μg/ml) or D6S (100 μg/ml) for 1 h following which either bFGF (10 ng/ml) or VEGF (20 ng/ml, Preprotech, Rocky Hill, N.J.) were added. […] [^3H]-thymidine (1 mCi/ml, Amersham Pharrnacia, Bucks, UK) was added 48 h later and the cells cultured for a further 16 h. Cells were harvested using an automated Betaplate 96 well harvester (Wallac Oy, Turku, Finland) and the radioactivity counted using a Betaplate liquid scintillation counter."}, "[6]": {"test_system": "KSY-1 cell line", "assay": "Proliferation with bFGF or VEGF, [3H]-thymidine incorporation", "assay_type": "cell-based, human"}, "[7]": {"test_system": "human umbilical vein endothelial cells", "assay": "Endothelial microtubule formation assay on Matrigel", "assay_type": "cell-based", "settings": "HUVEC on Matrigel, scored at 18 h", "protocol": "FIG. 6: The photomicrographs show endothelial microtubule formation in the presence of sulphated dextrins (×40 magnification). A visual analogue scale was used to determine the extent of tube formation and scored on a scale from 0 (all cells remain single) to 4 (all cells involved in tubular structures) as previously described (ref: 1,14). Space bar=100 microns.\nThe endothelial microtuble formation assay was performed by isolating human umbilical vein endothelial cells from umbilical cords within 6 h of delivery by caesarean section. The umbilical vein was cannulated and 0.1% collagenase in phosphate buffered saline was introduced and incubated for 20 minutes. The endothelial cells liberated by the collagenase were obtained by washing the umbilical vein with Medium 199. The cells were washed three times with Medium 199 and then cultured in tissue culture flasks coated with fibronectin. […]\nAliquots of Matrigel were dispensed into 35 mm diameter tissue culture dishes on ice and then incubated at 37° C. for 10 min to allow the gel to set. […] At various time points from 8-24 hours, the plates were examined and scored using a published scheme from 0-4, where 0=all adherent cells remain single, and 4=all adherent cells involved in tubular structures. New vessel formation was quantified blind by three different observers at 18 h. […]"}, "[8]": {"test_system": "HPB-ALL cells", "assay": "[3H]-dextrin 2-sulphate binding to HPB-ALL cells"}, "[9]": {"test_system": "HeLa cells", "assay": "[3H]-dextrin 2-sulphate binding to HeLa cells", "settings": "n=9"}, "[10]": {"test_system": "peripheral blood mononuclear cells and monocyte-derived-macrophages", "assay": "D2S cell surface binding to peripheral blood mononuclear cells and monocyte-derived-macrophages", "settings": "PBMC and monocyte-derived-macrophages, read-out: dissociation constant", "protocol": "Our previous studies of peripheral blood mononuclear cells and monocyte-derived-macrophages have shown that D2S binds to the cell surface in a specific and saturable manner with a dissociation constant of 82±14 nM."}, "[11]": {"assay": "Accumulation in cells of the peritoneal cavity and peripheral blood of treated patients", "assay_type": "in vivo, human"}, "[12]": {"test_system": "Kaposi's sarcoma", "assay": "Phase I clinical trial in patients with late stage AIDS: Kaposi's sarcoma", "assay_type": "in vivo, human"}, "[13]": {"test_system": "HIV-1", "settings": "intra-peritoneal route, patients with late stage AIDS"}}, "note": "Entries after “also recorded” stand apart in the source; their conditions may differ."}
{"molecule": "Cc1ccc(C(=O)Nc2ccc(S(=O)(=O)O)c3cc(S(=O)(=O)O)cc(S(=O)(=O)O)c23)cc1NC(=O)c1cccc(NC(=O)Nc2cccc(C(=O)Nc3cc(C(=O)Nc4ccc(S(=O)(=O)O)c5cc(S(=O)(=O)O)cc(S(=O)(=O)O)c45)ccc3C)c2)c1", "note": "[Suramin, reference compound]", "values": [{"measurement": "branch points, inhibition", "setting": "[1]; negative control reagent", "result": 98, "unit": "%"}, {"measurement": "tubule number, inhibitory effect compared to vehicle control", "setting": "[1]; negative control reagent", "result": 51, "unit": "%"}]}
{"molecule": "dextrin", "values": [{"measurement": "new vessel formation compared to media alone", "setting": "[2]", "result": "no difference"}, {"measurement": "cell viability (Trypan blue exclusion)", "setting": "[3]", "result": "> 95", "unit": "%"}, {"measurement": "rate of cell division", "setting": "[3]; HUVEC's, 7 day period, twice weekly cell counts", "result": "Neither dextrin nor sulphated dextrins affected"}, {"measurement": "cell viability (Trypan blue exclusion)", "setting": "[4]", "result": "> 95", "unit": "%"}, {"measurement": "rate of cell division", "setting": "[4]; KSY-1 cells, 7 day period, twice weekly cell counts", "result": "Neither dextrin nor sulphated dextrins affected"}]}
{"molecule": "dextrin 6-sulphate", "values": [{"measurement": "effect on proliferation induced by bFGF or VEGF", "setting": "[5]", "result": "do not interfere"}, {"measurement": "effect on proliferation induced by bFGF or VEGF", "setting": "[5]; listed as D6S", "result": "no significant effect"}, {"measurement": "effect on proliferation with bFGF or VEGF", "setting": "[6]", "result": "do not interfere"}, {"measurement": "new vessel formation compared to media alone", "setting": "[2]", "result": "reduced the rate of new vessel formation"}, {"measurement": "new vessel formation compared to media alone", "setting": "[2]; listed as Dextrin 6-sulphate", "result": "significant decrease in new vessel formation"}]}
{"molecule": "dextrin 2,6-sulphate", "values": [{"measurement": "anti-angiogenic activity (microtubule formation)", "setting": "[7]", "result": "more than that seen with D2S but less than that seen with D6S"}]}
{"molecule": "VEGF", "values": [{"measurement": "branch points, elevation", "setting": "[1]; positive control reagent", "result": 131, "unit": "%"}, {"measurement": "tubule number, elevation compared to vehicle control", "setting": "[1]; positive control reagent", "result": 174, "unit": "%"}]}
{"molecule": "dextrin 2-sulphate", "values": [{"measurement": "Bmax", "setting": "[8]", "result": "4.8±0.3", "unit": "pmol/10^6 cells"}, {"measurement": "Kd", "setting": "[8]; specific and saturable binding, read-out: dissociation constant (Kd)", "result": "82 ± 14", "unit": "nM"}, {"measurement": "Bmax", "setting": "[9]", "result": "4.1±0.2", "unit": "pmol/10^6 cells"}, {"measurement": "Kd", "setting": "[9]", "result": "107 ± 12", "unit": "nM"}, {"measurement": "Kd", "setting": "[10]", "result": "82 ± 14", "unit": "nM"}, {"measurement": "accumulation in cells of treated patients", "setting": "[11]", "result": "accumulated in the peritoneal macrophages and mesothelial cells"}, {"measurement": "effect on proliferation induced by bFGF or VEGF", "setting": "[5]", "result": "do not interfere"}, {"measurement": "effect on proliferation induced by bFGF or VEGF", "setting": "[5]; listed as D2S", "result": "no significant effect"}, {"measurement": "effect on proliferation with bFGF or VEGF", "setting": "[6]", "result": "do not interfere"}, {"measurement": "new blood vessel formation score (scale 0-3)", "setting": "[2]; day 22", "result": 1}, {"measurement": "new vessel formation compared to media alone", "setting": "[2]", "result": "reduced the rate of new vessel formation; also recorded: significant reduction in the number of new vessels"}, {"measurement": "Kaposi's sarcoma clinical response", "setting": "[12]", "result": "clinical regression of Kaposi's sarcoma in three patients"}, {"measurement": "viral load of HIV-1", "setting": "[13]", "result": "significant and sustained fall"}]}
